The NIST ThermoML archive (doi:10.1016/j.fluid.2011.09.037)

Experiment: osmotic coefficient (dimensionless); mn = molality of the nth substance listed, in mol/kg
Settings: 323.15 K, 101 kPa, Liquid, vapor pressure osmometer

CCCCCO [pentan-1-ol] + CCCCCC[n+]1ccn(C)c1.O=S(=O)([N-]S(=O)(=O)C(F)(F)F)C(F)(F)F
Settings	osmotic coefficient
m1 = 0.0502	0.467
m1 = 0.0781	0.411
m1 = 0.1123	0.372
m1 = 0.1977	0.313
m1 = 0.3009	0.267
m1 = 0.4054	0.24
m1 = 0.4903	0.214
m1 = 0.8026	0.178
m1 = 1.11	0.163
m1 = 1.368	0.149
m1 = 1.723	0.12
m1 = 2.211	0.095
m1 = 2.657	0.096
m1 = 3.231	0.091

CCCCO [butan-1-ol] + CCCCCC[n+]1ccn(C)c1.O=S(=O)([N-]S(=O)(=O)C(F)(F)F)C(F)(F)F
Settings	osmotic coefficient
m1 = 0.0466	0.746
m1 = 0.0832	0.604
m1 = 0.1034	0.574
m1 = 0.1973	0.461
m1 = 0.2989	0.411
m1 = 0.3965	0.362
m1 = 0.4907	0.343
m1 = 0.6881	0.295
m1 = 0.9952	0.245
m1 = 1.304	0.212
m1 = 1.685	0.2
m1 = 2.109	0.18
m1 = 2.479	0.172
m1 = 2.947	0.161
m1 = 3.291	0.162

CCC(C)O (configuration not stated) [butan-2-ol] + CCCCCC[n+]1ccn(C)c1.O=S(=O)([N-]S(=O)(=O)C(F)(F)F)C(F)(F)F
Settings	osmotic coefficient
m1 = 0.0478	0.834
m1 = 0.076	0.769
m1 = 0.1019	0.659
m1 = 0.2141	0.532
m1 = 0.3112	0.443
m1 = 0.4257	0.403
m1 = 0.5354	0.369
m1 = 0.72	0.324
m1 = 1.008	0.285
m1 = 1.311	0.251
m1 = 1.722	0.231
m1 = 2.107	0.219
m1 = 2.477	0.214
m1 = 2.87	0.195

CCCO [propan-1-ol] + CCCCCC[n+]1ccn(C)c1.O=S(=O)([N-]S(=O)(=O)C(F)(F)F)C(F)(F)F
Settings	osmotic coefficient
m1 = 0.0281	0.906
m1 = 0.0539	0.866
m1 = 0.081	0.797
m1 = 0.1046	0.716
m1 = 0.2004	0.621
m1 = 0.3018	0.523
m1 = 0.4154	0.46
m1 = 0.519	0.445
m1 = 0.8326	0.386
m1 = 1.14	0.342
m1 = 1.432	0.316
m1 = 1.742	0.306
m1 = 2.247	0.288
m1 = 2.739	0.265
m1 = 3.188	0.247

CC(C)O [propan-2-ol] + CCCCCC[n+]1ccn(C)c1.O=S(=O)([N-]S(=O)(=O)C(F)(F)F)C(F)(F)F
Settings	osmotic coefficient
m1 = 0.0549	0.902
m1 = 0.0805	0.876
m1 = 0.0992	0.841
m1 = 0.2037	0.678
m1 = 0.3092	0.572
m1 = 0.4087	0.524
m1 = 0.5171	0.485
m1 = 0.8189	0.429
m1 = 1.111	0.387
m1 = 1.405	0.355
m1 = 1.712	0.321
m1 = 2.193	0.314
m1 = 2.655	0.304
m1 = 3.207	0.294
